Test results as given in paper PMC6199744, “Development of Chemical Proteomics for the Folateome and Analysis of the Kinetoplastid Folateome” (ACS Infectious Diseases, 2018).
Like-named read-outs stand apart in the source and are kept apart here.

Experiments:
Type in all cases: binding
[1] = biological target: T1, HeLa cell extract proteins (Homo sapiens, UniProt P35613)
T1 construct: endogenous in cells; host or cells: HeLa cell extract
T1 sequence (P35613 22-385): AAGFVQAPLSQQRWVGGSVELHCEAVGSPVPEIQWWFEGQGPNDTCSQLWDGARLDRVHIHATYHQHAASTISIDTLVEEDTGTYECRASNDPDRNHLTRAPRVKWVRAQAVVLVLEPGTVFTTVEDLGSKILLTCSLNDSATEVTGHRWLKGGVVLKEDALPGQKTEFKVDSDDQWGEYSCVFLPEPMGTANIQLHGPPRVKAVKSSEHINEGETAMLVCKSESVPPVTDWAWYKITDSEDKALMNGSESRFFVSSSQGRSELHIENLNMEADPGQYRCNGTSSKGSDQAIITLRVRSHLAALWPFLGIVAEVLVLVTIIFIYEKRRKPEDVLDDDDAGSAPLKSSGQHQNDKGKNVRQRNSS

[2] = biological target: T2, HeLa cell extract proteins (Homo sapiens, UniProt Q9BSE5)
T2 construct: endogenous in cells; host or cells: HeLa cell extract
T2 sequence (Q9BSE5 36-352): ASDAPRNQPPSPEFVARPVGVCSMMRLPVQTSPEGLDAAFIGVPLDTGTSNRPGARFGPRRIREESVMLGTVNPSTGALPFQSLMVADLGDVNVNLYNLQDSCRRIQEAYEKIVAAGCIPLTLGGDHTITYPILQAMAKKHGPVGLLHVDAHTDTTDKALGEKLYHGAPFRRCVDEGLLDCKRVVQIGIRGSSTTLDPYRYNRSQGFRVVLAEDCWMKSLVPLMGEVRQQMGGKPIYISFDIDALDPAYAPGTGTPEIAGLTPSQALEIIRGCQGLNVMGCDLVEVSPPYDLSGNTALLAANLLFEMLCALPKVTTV

[3] = biological target: T3, HeLa cell extract proteins (Homo sapiens, UniProt Q16543)
T3 construct: endogenous in cells; host or cells: HeLa cell extract
T3 sequence (Q16543 1-378): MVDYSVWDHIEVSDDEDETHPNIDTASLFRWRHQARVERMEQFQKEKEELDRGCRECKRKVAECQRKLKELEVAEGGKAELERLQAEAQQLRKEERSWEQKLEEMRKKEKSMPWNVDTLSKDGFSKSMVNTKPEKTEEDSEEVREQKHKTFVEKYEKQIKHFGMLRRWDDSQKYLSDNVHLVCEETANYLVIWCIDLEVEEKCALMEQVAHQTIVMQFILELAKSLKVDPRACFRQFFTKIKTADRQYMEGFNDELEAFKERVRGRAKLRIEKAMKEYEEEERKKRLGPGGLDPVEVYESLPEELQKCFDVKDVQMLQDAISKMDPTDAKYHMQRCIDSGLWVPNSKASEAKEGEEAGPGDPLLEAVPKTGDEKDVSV

[4] = biological target: T4, HeLa cell extract proteins (Homo sapiens, UniProt P12268)
T4 construct: endogenous in cells; host or cells: HeLa cell extract

[5] = biological target: T5, HeLa cell extract proteins (Homo sapiens, UniProt P19105)
T5 construct: endogenous in cells; host or cells: HeLa cell extract
T5 sequence (P19105 1-171): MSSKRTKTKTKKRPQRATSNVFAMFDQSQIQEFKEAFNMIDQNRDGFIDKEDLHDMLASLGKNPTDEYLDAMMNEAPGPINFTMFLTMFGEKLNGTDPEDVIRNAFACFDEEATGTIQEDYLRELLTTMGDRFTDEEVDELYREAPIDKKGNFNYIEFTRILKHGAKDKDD

[6] = biological target: T6, HeLa cell extract proteins (Homo sapiens, UniProt P41250); details: protein GARS; HeLa
T6 construct: endogenous in cells; host or cells: HeLa cell extract
T6 sequence (P41250 37-739): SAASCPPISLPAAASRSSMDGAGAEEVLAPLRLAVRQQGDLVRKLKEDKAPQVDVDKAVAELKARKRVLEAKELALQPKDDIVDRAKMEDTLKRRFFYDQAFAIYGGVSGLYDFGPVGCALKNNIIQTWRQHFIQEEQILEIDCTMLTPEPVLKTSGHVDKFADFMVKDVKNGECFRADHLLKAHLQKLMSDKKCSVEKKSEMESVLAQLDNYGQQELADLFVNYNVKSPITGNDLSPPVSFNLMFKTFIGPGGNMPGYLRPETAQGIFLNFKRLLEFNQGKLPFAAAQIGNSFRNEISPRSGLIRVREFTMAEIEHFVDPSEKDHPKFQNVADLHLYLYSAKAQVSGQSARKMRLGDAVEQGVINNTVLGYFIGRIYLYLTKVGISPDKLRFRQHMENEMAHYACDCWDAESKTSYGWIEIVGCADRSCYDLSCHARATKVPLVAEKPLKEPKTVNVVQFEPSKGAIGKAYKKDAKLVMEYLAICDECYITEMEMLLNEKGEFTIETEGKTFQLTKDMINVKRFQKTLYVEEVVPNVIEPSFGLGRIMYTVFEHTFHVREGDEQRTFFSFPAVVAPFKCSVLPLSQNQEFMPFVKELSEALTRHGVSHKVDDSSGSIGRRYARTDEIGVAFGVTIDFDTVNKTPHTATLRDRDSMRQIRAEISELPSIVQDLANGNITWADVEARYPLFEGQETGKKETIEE

[7] = biological target: T7, HeLa cell extract proteins (Homo sapiens, UniProt Q9BVK8); details: HeLa; protein TMEM147
T7 construct: endogenous in cells; host or cells: HeLa cell extract
T7 sequence (Q9BVK8 1-224): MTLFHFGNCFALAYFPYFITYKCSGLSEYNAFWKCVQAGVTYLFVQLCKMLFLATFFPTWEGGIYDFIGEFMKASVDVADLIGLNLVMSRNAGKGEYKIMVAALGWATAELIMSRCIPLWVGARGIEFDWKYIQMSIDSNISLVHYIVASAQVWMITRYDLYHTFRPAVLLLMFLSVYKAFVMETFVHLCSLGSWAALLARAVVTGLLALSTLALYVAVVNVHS

[8] = biological target: T8, HeLa cell extract proteins (Homo sapiens, UniProt Q05639); details: protein EEF1A2; HeLa
T8 construct: endogenous in cells; host or cells: HeLa cell extract
T8 sequence (Q05639 1-463): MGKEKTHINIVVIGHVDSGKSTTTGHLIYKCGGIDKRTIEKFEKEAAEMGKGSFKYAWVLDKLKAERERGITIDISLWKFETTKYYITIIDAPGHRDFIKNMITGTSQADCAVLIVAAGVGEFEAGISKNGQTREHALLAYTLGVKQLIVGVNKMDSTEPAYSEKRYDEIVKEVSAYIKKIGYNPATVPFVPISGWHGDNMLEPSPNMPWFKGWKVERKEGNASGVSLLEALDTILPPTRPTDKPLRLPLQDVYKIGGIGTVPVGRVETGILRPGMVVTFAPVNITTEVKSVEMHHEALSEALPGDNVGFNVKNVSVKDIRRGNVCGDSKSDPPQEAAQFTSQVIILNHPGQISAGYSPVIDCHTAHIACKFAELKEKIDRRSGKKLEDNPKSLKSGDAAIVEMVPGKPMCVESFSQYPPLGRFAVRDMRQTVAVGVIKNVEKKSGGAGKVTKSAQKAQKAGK

[9] = biological target: T9, HeLa cell extract proteins (Homo sapiens, UniProt Q9UGJ1); details: HeLa; protein TUBGCP4
T9 construct: endogenous in cells; host or cells: HeLa cell extract
T9 sequence (Q9UGJ1 whole entry): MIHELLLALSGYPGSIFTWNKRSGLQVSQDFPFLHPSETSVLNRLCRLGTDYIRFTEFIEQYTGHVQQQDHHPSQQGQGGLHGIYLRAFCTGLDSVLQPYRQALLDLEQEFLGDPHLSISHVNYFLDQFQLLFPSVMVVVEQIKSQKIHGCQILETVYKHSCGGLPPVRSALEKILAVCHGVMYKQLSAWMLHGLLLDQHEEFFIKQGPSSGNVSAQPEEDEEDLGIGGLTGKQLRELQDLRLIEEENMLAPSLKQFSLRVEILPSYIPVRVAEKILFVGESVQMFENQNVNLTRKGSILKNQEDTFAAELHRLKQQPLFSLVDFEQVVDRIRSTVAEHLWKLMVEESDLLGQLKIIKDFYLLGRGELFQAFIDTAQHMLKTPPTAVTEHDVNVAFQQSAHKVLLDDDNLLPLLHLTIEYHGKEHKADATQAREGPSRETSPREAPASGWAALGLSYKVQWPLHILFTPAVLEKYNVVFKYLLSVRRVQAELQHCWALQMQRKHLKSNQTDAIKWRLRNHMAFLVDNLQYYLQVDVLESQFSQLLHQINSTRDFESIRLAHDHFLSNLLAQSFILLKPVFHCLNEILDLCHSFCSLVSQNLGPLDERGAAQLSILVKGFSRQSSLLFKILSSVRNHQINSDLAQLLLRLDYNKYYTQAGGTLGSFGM

[10] = HeLa, protein MRCL3 (MYOSIN REGULATORY LIGHT CHAIN MRCL3 VARIANT)

| Structure (SMILES) | fold changes relative to vehicle control ([1]; protein BSG, HeLa) | fold changes relative to vehicle control ([2]; protein AGMAT, HeLa) | fold changes relative to vehicle control ([3]; protein CDC37, HeLa) | fold changes relative to vehicle control ([4]; HeLa, protein IMPDH2) | fold changes relative to vehicle control [5, 10] | fold changes relative to vehicle control [6] | fold changes relative to vehicle control [7] | fold changes relative to vehicle control [8] | fold changes relative to vehicle control [9] | further results |
| --- | --- | --- | --- | --- | --- | --- | --- | --- | --- | --- |
| Nc1nc2c(c(=O)[nH]1)N(C=O)C(CNc1ccc(C(=O)N[C@@H](CCC(=O)O)C(=O)O)cc1)CN2 (some centres unmarked) [LEU, leucovorin] | 0.87 | 0.84 | 1.13 | 1.06 | 0.8 |  |  |  |  |  |
| Nc1nc2[nH]cc(CCc3ccc(C(=O)N[C@@H](CCC(=O)O)C(=O)O)cc3)c2c(=O)[nH]1 [PTX, pemetrexed] |  |  |  |  |  |  |  |  |  | fold changes relative to vehicle control [1]: 0.88; fold changes relative to vehicle control [2]: 0.89; fold changes relative to vehicle control [3]: 1.1; fold changes relative to vehicle control [4]: 0.97; fold changes relative to vehicle control [5]: 0.9 |
| CCCCCCOc1ccc(Cc2cnc(N)nc2N)cc1 [compound 1] |  |  |  |  |  | 1.14 | 0.72 | 1.09 | 0.85 |  |
| CCCCCCOc1cccc(Cc2cnc(N)nc2N)c1 [compound 2] |  |  |  |  |  | 1.74 | 0.97 | 2.29 | 1.07 |  |
| Nc1nc2cccc(-c3ccccc3)c2n1Cc1ccc(Cl)c(Cl)c1 [compound 3] |  |  |  |  |  | 0.93 | 0.96 | 0.82 | 1.02 |  |
| NCCOCCOCC(=O)Nc1nc2ncc(CNc3ccc(C(=O)NC(CCC(=O)O)C(=O)O)cc3)nc2c(=O)[nH]1 (centres unmarked) [compound 6] | 1.02 | 0.97 | 1.21 | 1.18 | 1.43 |  |  |  |  |  |
| NCCCNc1ccc(C(=O)NC(CCC(=O)O)C(=O)O)cc1 (centres unmarked) [compound 7] | 0.8 | 0.93 | 1.14 | 1.03 | 0.93 |  |  |  |  |  |
